In ChEMBL document CHEMBL1152950, “Cytotoxic activity and inhibitory effect on nitric oxide production of triterpene saponins from the roots of Physospermum verticillatum (Waldst & Kit) (Apiaceae)” (Bioorg Med Chem, 2009) one finds Activity and IC50 data, which are given here for nine molecules.

For series [1], the system named is A-375. As to the kind of experiment: Cytotoxicity against human A375 cells after 48 hrs by SRB assay. The class given is functional, cell-based. The note with it: for IC50: A-375, 48 h.
A short description of series [2]: Cytotoxicity against human Huh-7D12 cells after 48 hrs by SRB assay. The class given is functional, cell-based. The note with it: Huh-7D12, 48 h.
In series [3] the test system is C32. The experiment in a line: Cytotoxicity against human C32 cells after 48 hrs by SRB assay. The series is classed as functional, cell-based. The note with it: for IC50: C32, 48 h.
Series [4] has as its system COR-L23. The experiment in a line: Cytotoxicity against human COR-L23 cells after 48 hrs by SRB assay. The series is classed as functional, cell-based. The note with it: for IC50: COR-L23, 48 h.
Series [5] deals with Caco-2. The experiment in a line: Cytotoxicity against human Caco-2 cells after 48 hrs by SRB assay. The note with it: for IC50: Caco-2, 48 h. The class given is functional, cell-based.
Series [6] deals with LNCaP. As to the kind of experiment: Cytotoxicity against human LNCAP cells after 48 hrs by SRB assay. The class given is functional, cell-based.
Series [7] in a line: Cytotoxicity against human 142BR cells after 48 hrs by SRB assay. The class given is cell-based. Particulars: for IC50: Homo sapiens; for Activity: human; call rule not given here.
Series [8] relates to ACHN. The experiment in a line: Cytotoxicity against human ACHN cells after 48 hrs by SRB assay. The class given is functional, cell-based.
For series [9], the system named is HT-29. As to the kind of experiment: Cytotoxicity against human HT-29 cells. The series is classed as functional, cell-based.
The test system of series [10] is SK-OV-3. The experiment in a line: Cytotoxicity against human SKOV3 cells. The series is classed as functional, cell-based.
The test system of series [11] is MCF7. As to the kind of experiment: Cytotoxicity against human MCF7 cells. The series is classed as functional, cell-based.
Series [12] deals with HL-60. The experiment in a line: Cytotoxicity against human HL60 cells. The series is classed as functional, cell-based.
Series [13] relates to RAW264.7. The experiment in a line: Antiinflammatory activity in LPS-stimulated mouse RAW264.7 cells assessed as inhibition of NO production after 24 hrs by Griess reagent method. The note with it: for IC50: RAW264.7, 24 h. The class given is functional, cell-based.
Series [14] concerns RAW264.7. As to the kind of experiment: Cytotoxicity against mouse RAW264.7 cells by MTT assay. The series is classed as cell-based.
Series [15] deals with Radical scavenging activity. The experiment in a line: Antioxidant activity assessed as DPPH radical scavenging activity by spectrophotometry. The class given is functional.
The test system of series [16] is MCF7. As to the kind of experiment: Cytotoxicity against human MCF7 cells after 48 hrs by SRB assay. The class given is functional, cell-based. The note with it: MCF7, 48 h.
Series [17] relates to A549. The experiment in a line: Cytotoxicity against human A549 cells after 48 hrs by SRB assay. The series is classed as functional, cell-based. Particulars: A549, 48 h.

With `CC[C@]1(O)C[C@@H]2CN(CCc3c([nH]c4ccccc34)[C@@](C(=O)OC)(c3cc4c(cc3OC)N(C)[C@H]3[C@@](O)(C(=O)OC)[C@H](OC(C)=O)[C@]5(CC)C=CCN6CC[C@]43[C@@H]65)C2)C1.O=S(=O)(O)O` [VINBLASTINE SULFATE], the Activity entry in series [1], in series [3], in series [4], in [5], in series [7] and in series [8] was “Dose-dependent effect” each time. Also, the concentration for half-maximal inhibition (IC50) was found to be 7.2 µM in series [1]; 45.6 µM in series [2]; 3 µM in [3]; 45.5 µM in series [4]; 69 µM in series [5]; 29.3 µM in series [6]. The results for the half-inhibitory concentration (IC50) in [7] and in series [8] were 37.6 µM and 22.7 µM, respectively.

With `CC1(C)C[C@@H]2C3=CC[C@@H]4[C@@]5(C)CC[C@H](O[C@@H]6OC[C@@H](O)[C@H](O[C@@H]7O[C@H](CO)[C@@H](O)[C@H](O)[C@H]7O)[C@H]6O)C(C)(C)[C@@H]5CC[C@@]4(C)[C@]3(C)C[C@H](O)[C@@]2(CO)[C@H](OC(=O)c2ccccc2)C1` [GLOCHIERIOSIDE B], the IC50 in series [9] came to 18.6 µM; in series [10], 16 µM; in [11], 36.1 µM; in series [12], 6.6 µM.

With `COc1ccc2c(c1)c(CC(=O)O)c(C)n2C(=O)c1ccc(Cl)cc1`, in series [13], the Activity result was “Dose-dependent effect”.

In the case of `CC1(C)C[C@@H]2C3=CC[C@@H]4[C@@]5(C)CC[C@H](O[C@H]6OC[C@H](O)[C@H](O[C@@H]7O[C@H](CO)[C@@H](O)[C@H](O)[C@H]7O)[C@H]6O)C(C)(C)[C@@H]5CC[C@@]4(C)[C@]3(C)C[C@H](O)[C@@]2(CO)[C@H](OC(=O)c2ccccc2)C1` [GLOCHIERIOSIDE A], the IC50 in series [9] came out at 6.8 µM; in [10] it was 22.7 µM; in series [11], 29.1 µM; in series [12] it was 5.5 µM.

For `C[C@H]1O[C@@H](O[C@H]2CC[C@@]3(C)[C@@H](CC[C@]4(C)[C@@H]3C=C[C@]35OC[C@@]6(CCC(C)(C)C[C@H]63)[C@@H](O)C[C@]54C)[C@]2(C)CO)[C@H](O)[C@@H](O[C@@H]2O[C@H](CO)[C@@H](O)[C@H](O)[C@H]2O)[C@H]1O` [SAIKOSAPONIN A], the Activity entry in series [1], in series [13], in [3], in series [4], in series [5] and in series [7] was “Dose-dependent effect” each time. Further, in [8], the Activity entry is “Dose-dependent effect”. Further, the IC50 in series [1] was 23.9 µM; in series [13], 102 µM; in series [14] it was greater than 200 µM; in [2], greater than 50 µM; in series [3], 43.5 µM; in series [4], 0.6 µM. The IC50 in [5] was 17.9 µM; in series [15] it was “Not Active”; in series [6], greater than 50 µM; in [7], greater than 50 µM; in [8], greater than 50 µM; in series [16], greater than 50 µM. In [17], this molecule registered a half-inhibitory concentration (IC50) of 17.7 µM.

As to `O=C1O[C@H]([C@@H](O)CO)C(O)=C1O` [ASCORBIC ACID], the IC50 in series [15] (read-out: IC50) is 0.002 µM.

Turning to `C[C@H]1O[C@@H](O[C@H]2CC[C@@]3(C)[C@@H](CC[C@]4(C)[C@@H]3C=C[C@]35OC[C@@]6(CCC(C)(C)C[C@H]63)[C@@H](O)C[C@]54C)[C@]2(C)CO)[C@H](O[C@@H]2O[C@H](CO)[C@@H](O)[C@H](O)[C@H]2O)[C@@H](O[C@@H]2O[C@H](CO)[C@@H](O)[C@H](O)[C@H]2O)[C@H]1O` [BUDDLEJASAPONIN IV], the Activity entry in [1], in series [13], in series [3], in [4], in series [5] and in series [7] was “Dose-dependent effect” in each case. Further, the Activity entry in series [8] was “Dose-dependent effect”. In addition, the 50% inhibitory concentration (IC50) was 14.6 µM in [1]; 4.2 µM in series [13]; 10.6 µM in series [14]; greater than 50 µM in series [2]; 26.9 µM in series [3]; 0.4 µM in [4]. Further, the concentration for half-maximal inhibition (IC50) was 40.7 µM in [5]; “Not Active” in series [15]; greater than 50 µM in series [6]; greater than 50 µM in [7]; 7.9 µM in series [8]; greater than 50 µM in series [16]. This molecule also came in with a concentration for half-maximal inhibition (IC50) in series [17] of 38.3 µM.

In the case of `C[C@H]1O[C@@H](O[C@H]2CC[C@@]3(C)[C@@H](CC[C@]4(C)[C@@H]3C=C[C@]35OC[C@@]6(CCC(C)(C)C[C@H]63)[C@@H](O)C[C@]54C)[C@]2(C)CO)[C@H](O)[C@@H](O[C@@H]2O[C@H](CO)[C@@H](O)[C@H](O[C@@H]3O[C@H](CO)[C@@H](O)[C@H](O)[C@H]3O[C@@H]3O[C@H](CO)[C@@H](O)[C@H](O)[C@H]3O)[C@H]2O)[C@H]1O` [SONGAROSAPONIN D], the Activity result in series [1], in series [13], in series [3], in [4], in [5] and in [7] was “Dose-dependent effect” each time. For the same molecule, in [8], the Activity result was “Dose-dependent effect”. In addition, the half-maximal inhibitory concentration (IC50) in series [1] is 12.4 µM; in series [13], 10.4 µM; in series [14], 56.1 µM; in series [2] it was greater than 50 µM; in series [3], 14 µM; in [4], 0.4 µM. The IC50 in series [5] was 16.7 µM; in series [15], “Not Active”; in [6], greater than 50 µM; in [7], greater than 50 µM; in series [8] it was 37.2 µM; in series [16], greater than 50 µM. The same molecule showed an IC50 in series [17] of 41.1 µM.

Take `CC(=O)O[C@H]1C(=O)[C@@]2(C)[C@H]([C@H](OC(=O)c3ccccc3)[C@]3(O)C[C@H](OC(=O)[C@H](O)[C@@H](NC(=O)c4ccccc4)c4ccccc4)C(C)=C1C3(C)C)[C@]1(OC(C)=O)CO[C@@H]1C[C@@H]2O` [PACLITAXEL]: the Activity entry in [1], in series [3], in series [4], in series [5], in [7] and in series [8] was “Dose-dependent effect” in each case. This molecule came in with an IC50 in series [16] of 0.08 µM.
